Some test systems named below: A549 NSCLC; HL-60(TB) leukemia; UO-31 renal; T-47D breast; IGROV1 ovarian; HCT-15 colon; MCF7 breast; SF-539 CNS; M14 melanoma; UACC-62 melanoma; 786-0 renal; HCC-2998 colon; CCRF-CEM leukemia; OVCAR-4 ovarian; LOX IMVI melanoma; A498 renal; OVCAR-5 ovarian.
Holding throughout (experiment): inhibition of tumour cell growth, NCI panel, 48 h

Each structure is given as a SMILES string.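 Where inhibition never reached the appropriate level, the endpoint shown equals the highest concentration tested. Otherwise, values were interpolated linearly from a five-concentration, 48-hour dose response in 96-well plates. TGI marks complete inhibition of growth.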

As to `CCOC(=O)CCC(NC(=O)c1ccc(Oc2nc3ccccc3nc2-c2ccccc2)cc1)C(=O)OCC` (centres undefined), the TGI in the assay with A549 NSCLC is greater than 100 µM; with HL-60(TB) leukemia, greater than 100 µM; in the assay with UO-31 renal, greater than 100 µM; with T-47D breast, greater than 72.1 µM; with IGROV1 ovarian it was greater than 100 µM; in the assay on HCT-15 colon, greater than 100 µM. In addition, the TGI with MCF7 breast was greater than 100 µM; in the assay on SF-539 CNS, 15 µM; in the assay with M14 melanoma, greater than 100 µM; in the assay on UACC-62 melanoma, greater than 100 µM; with 786-0 renal it was greater than 28.7 µM; in the assay on HCC-2998 colon it was greater than 100 µM. Further, the TGI was greater than 100 µM in the assay on CCRF-CEM leukemia; 65.6 µM in the assay on OVCAR-4 ovarian; greater than 100 µM with LOX IMVI melanoma; greater than 100 µM in the assay with A498 renal; greater than 100 µM with OVCAR-5 ovarian.

As to `CC1(C)CC2=C(Sc3ccccc3N2)C(=O)C1C(=O)C(=O)Nc1cccc([N+](=O)[O-])c1` (centres undefined), the TGI in the assay with A549 NSCLC, with HL-60(TB) leukemia, with UO-31 renal, in the assay with T-47D breast, in the assay on IGROV1 ovarian and in the assay with HCT-15 colon was greater than 100 µM each time. Besides, the TGI in the assay on MCF7 breast, with SF-539 CNS, in the assay on M14 melanoma, in the assay on UACC-62 melanoma, in the assay on 786-0 renal and in the assay on HCC-2998 colon was greater than 100 µM in each case. Besides, the TGI in the assay on CCRF-CEM leukemia, with OVCAR-4 ovarian, with LOX IMVI melanoma, in the assay on A498 renal and in the assay with OVCAR-5 ovarian was greater than 100 µM each time.

Consider `CC[C@@H]1C(=O)OC[C@@H]1Cc1cncn1C`, for which the TGI with A549 NSCLC, in the assay with HL-60(TB) leukemia, in the assay on UO-31 renal, with T-47D breast, in the assay on IGROV1 ovarian and in the assay with HCT-15 colon was greater than 100 µM throughout. Also, the TGI in the assay with MCF7 breast, with SF-539 CNS, in the assay on M14 melanoma, in the assay on UACC-62 melanoma, in the assay with 786-0 renal and with HCC-2998 colon was greater than 100 µM throughout. In addition, the TGI in the assay on CCRF-CEM leukemia, in the assay on OVCAR-4 ovarian, in the assay on LOX IMVI melanoma, in the assay with A498 renal and in the assay on OVCAR-5 ovarian was greater than 100 µM each time.

`O=C(CC(C(=O)c1cccs1)c1cccs1)c1ccsc1` (centres undefined): the TGI in the assay with A549 NSCLC is greater than 100 µM; in the assay on HL-60(TB) leukemia it was 95 µM; in the assay with UO-31 renal, greater than 100 µM; with T-47D breast, greater than 100 µM; with IGROV1 ovarian, greater than 100 µM; in the assay with HCT-15 colon, greater than 100 µM. The TGI in the assay with MCF7 breast, with SF-539 CNS, in the assay on M14 melanoma, in the assay on UACC-62 melanoma, in the assay with 786-0 renal and in the assay with HCC-2998 colon was greater than 100 µM in each case. Further, the TGI with CCRF-CEM leukemia, in the assay with OVCAR-4 ovarian, in the assay on LOX IMVI melanoma, in the assay with A498 renal and with OVCAR-5 ovarian was greater than 100 µM each time.

For `CC1=CC[C@H](C(C)C)C(C(O)[C@@H](C)O[Si](c2ccccc2)(c2ccccc2)C(C)(C)C)C1=O` (some centres undefined), the TGI was 38.4 µM with A549 NSCLC; 42.6 µM with HL-60(TB) leukemia; 31.7 µM in the assay on UO-31 renal; 46.1 µM in the assay on T-47D breast; 64.8 µM with IGROV1 ovarian; 36.4 µM in the assay on HCT-15 colon. Moreover, the TGI in the assay on MCF7 breast stood at 44.2 µM; with SF-539 CNS, 44.1 µM; in the assay with M14 melanoma it was 32.6 µM; in the assay on UACC-62 melanoma, 33.6 µM; with 786-0 renal, 32.7 µM; in the assay with HCC-2998 colon it was 29 µM. In addition, the TGI was determined as 63.8 µM with CCRF-CEM leukemia; 41 µM in the assay with OVCAR-4 ovarian; 45.7 µM in the assay on LOX IMVI melanoma; 35.5 µM in the assay with A498 renal; 36.2 µM in the assay with OVCAR-5 ovarian.

Consider `CC(C)(C)OCC1NC(=O)[C@@H]2Cc3c([nH]c4ccccc34)C(c3ccccc3)N2C1=O` (some centres undefined), for which the TGI in the assay with A549 NSCLC, in the assay on HL-60(TB) leukemia, with UO-31 renal, in the assay with T-47D breast, in the assay with IGROV1 ovarian and with HCT-15 colon was greater than 50 µM in each case. The TGI in the assay on MCF7 breast, in the assay with SF-539 CNS, in the assay on M14 melanoma, in the assay on UACC-62 melanoma, with 786-0 renal and with HCC-2998 colon was greater than 50 µM throughout. Moreover, the TGI in the assay with CCRF-CEM leukemia, in the assay with OVCAR-4 ovarian, with LOX IMVI melanoma, with A498 renal and with OVCAR-5 ovarian was greater than 50 µM in each case.

Consider `O=c1c2cc(-c3ccccc3)sc2nc2n1N=C(c1ccc(Cl)cc1)CS2`, for which the TGI with A549 NSCLC, in the assay with HL-60(TB) leukemia, with UO-31 renal, in the assay with T-47D breast, in the assay on IGROV1 ovarian and in the assay with HCT-15 colon was greater than 100 µM in each case. In addition, the TGI with MCF7 breast, in the assay on SF-539 CNS, with UACC-62 melanoma, in the assay on 786-0 renal, with HCC-2998 colon and with CCRF-CEM leukemia was greater than 100 µM throughout. For the same compound, the TGI with OVCAR-4 ovarian, in the assay on LOX IMVI melanoma, with A498 renal and in the assay on OVCAR-5 ovarian was greater than 100 µM throughout.

As for `Oc1cc2c3c(c1)CCCN3CCC2`, the TGI with A549 NSCLC, in the assay with HL-60(TB) leukemia, with T-47D breast, with IGROV1 ovarian, in the assay on HCT-15 colon and in the assay on MCF7 breast was greater than 10 µM throughout. Moreover, the TGI in the assay with SF-539 CNS, in the assay with M14 melanoma, in the assay on UACC-62 melanoma, in the assay on 786-0 renal, with HCC-2998 colon and with CCRF-CEM leukemia was greater than 10 µM throughout. For the same compound, the TGI with OVCAR-4 ovarian, in the assay on LOX IMVI melanoma, with A498 renal and in the assay with OVCAR-5 ovarian was greater than 10 µM in each case.

(Values after PubChem BioAssay (NCI).)
